Measured values reported in patent US11478476B2 (CONTERA PHARMA APS, priority 2014, dated 2022).
Where two headings read alike, the source gives them in different places.

Tests used:
[1] = cited from earlier work
[2] = molecular target: T1, serotonin 5-HT1A receptor (Rattus norvegicus, UniProt P19327); settings: rats, intravenous infusions to steady-state plasma levels, cited from earlier work
T1 construct: host or cells: rat brain in vivo (dorsal raphe, hippocampus)
T1 sequence (P19327 1-422): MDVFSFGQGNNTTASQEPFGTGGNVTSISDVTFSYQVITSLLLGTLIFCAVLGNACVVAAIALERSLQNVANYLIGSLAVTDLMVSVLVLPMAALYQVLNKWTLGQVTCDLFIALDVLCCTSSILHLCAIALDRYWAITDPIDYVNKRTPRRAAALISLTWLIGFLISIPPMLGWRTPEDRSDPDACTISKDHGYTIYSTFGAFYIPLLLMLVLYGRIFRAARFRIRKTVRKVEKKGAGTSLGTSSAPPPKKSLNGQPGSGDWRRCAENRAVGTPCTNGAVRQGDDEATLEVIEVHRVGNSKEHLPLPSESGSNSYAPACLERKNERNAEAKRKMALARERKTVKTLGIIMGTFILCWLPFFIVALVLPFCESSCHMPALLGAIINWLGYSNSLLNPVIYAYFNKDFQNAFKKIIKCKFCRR

[3] = molecular target: T2, human recombinant dopamine D4 receptor (Homo sapiens, UniProt P21917); settings: read-out: D4 affinity Ki ± SEM; cited from earlier work
T2 sequence (P21917 1-419): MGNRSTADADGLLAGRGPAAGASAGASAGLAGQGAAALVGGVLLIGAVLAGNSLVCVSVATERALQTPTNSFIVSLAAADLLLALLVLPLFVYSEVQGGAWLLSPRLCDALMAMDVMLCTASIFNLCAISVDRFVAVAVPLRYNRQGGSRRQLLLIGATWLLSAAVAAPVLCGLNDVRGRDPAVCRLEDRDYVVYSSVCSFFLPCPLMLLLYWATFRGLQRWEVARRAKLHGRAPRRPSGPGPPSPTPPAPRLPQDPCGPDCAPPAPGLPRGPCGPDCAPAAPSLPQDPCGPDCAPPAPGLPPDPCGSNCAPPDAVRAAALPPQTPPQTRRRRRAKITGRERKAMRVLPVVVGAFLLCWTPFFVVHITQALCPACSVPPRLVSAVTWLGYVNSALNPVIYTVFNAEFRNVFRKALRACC

[4] = molecular target: human recombinant dopamine D2 receptor (Homo sapiens, UniProt P14416); settings: saturating concentrations of dopamine; read-out: D2 efficacy IC50 ± SEM; cited from earlier work
[5] = molecular target: human recombinant dopamine D3 receptor (Homo sapiens, UniProt P35462); settings: read-out: D3 affinity Ki ± SEM; cited from earlier work
PD model rats = assay: Stepping test (adjusting steps) in PD model rats; type: in vivo, rat; settings: 6-OH-Busp 3 mg/kg, sc added to L-DOPA 10 mg/kg
Experimental: The stepping test (Schallert et al., 1992) was performed as described by Kirik et al., 2001 with little modifications. Briefly, the rat was held by the experimenter fixing its hindlimbs with one hand and the forelimb not to be monitored with the other, while the unrestrained forepaw was touching the table. The number of adjusting steps was counted, while the rat was moved sideways along the table surface (90 cm in 5 s), in the forehand and backhand direction, for both forelimbs, and the average of the steps in the two directions is considered.
30 male PD model rats were used for adjusting steps test with the following groups: • 1. Vehicle 1+Vehicle 2 (n=7) • 2. Vehicle 1+L-DOPA (10 mg/kg, sc) (n=7) • 3. 6-OH-Busp (3 mg/kg, sc)+Vehicle 2 (n=8) • 4. 6-OH-Busp (3 mg/kg, sc)+L-DOPA (10 mg/kg, sc)
The PD rats were handled for 3 consecutive days. Vehicle 1 or 6-OH-Busp will s.c. dosed 61 min before adjusting steps test. Vehicle 2 or L-DOPA/Benserazide dosed 60 min before adjusting steps test. On testing day, the rats were held by both hind limbs and the untested forepaw. The test forepaw was placed on a flat surface and dragged in the forehand direction for 90 cm distance over 5 s. The number of adjusting steps was counted for both paws in the backhand and forehand directions of movement. […] Data were analyzed and graphed by Graph Pad Prism 6.

Chain of human recombinant dopamine D3 receptor (P35462 whole entry): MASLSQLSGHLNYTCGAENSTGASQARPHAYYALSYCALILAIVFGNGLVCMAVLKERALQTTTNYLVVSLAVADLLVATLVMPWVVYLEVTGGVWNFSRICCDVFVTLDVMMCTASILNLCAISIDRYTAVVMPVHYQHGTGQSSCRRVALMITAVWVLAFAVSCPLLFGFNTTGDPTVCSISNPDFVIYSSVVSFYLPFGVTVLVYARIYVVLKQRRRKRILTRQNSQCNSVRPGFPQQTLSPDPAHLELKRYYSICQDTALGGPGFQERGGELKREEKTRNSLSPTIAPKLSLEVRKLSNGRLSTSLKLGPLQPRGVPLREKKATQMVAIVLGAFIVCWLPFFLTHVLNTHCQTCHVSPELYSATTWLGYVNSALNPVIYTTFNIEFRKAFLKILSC
Chain of human recombinant dopamine D2 receptor (P14416 whole entry): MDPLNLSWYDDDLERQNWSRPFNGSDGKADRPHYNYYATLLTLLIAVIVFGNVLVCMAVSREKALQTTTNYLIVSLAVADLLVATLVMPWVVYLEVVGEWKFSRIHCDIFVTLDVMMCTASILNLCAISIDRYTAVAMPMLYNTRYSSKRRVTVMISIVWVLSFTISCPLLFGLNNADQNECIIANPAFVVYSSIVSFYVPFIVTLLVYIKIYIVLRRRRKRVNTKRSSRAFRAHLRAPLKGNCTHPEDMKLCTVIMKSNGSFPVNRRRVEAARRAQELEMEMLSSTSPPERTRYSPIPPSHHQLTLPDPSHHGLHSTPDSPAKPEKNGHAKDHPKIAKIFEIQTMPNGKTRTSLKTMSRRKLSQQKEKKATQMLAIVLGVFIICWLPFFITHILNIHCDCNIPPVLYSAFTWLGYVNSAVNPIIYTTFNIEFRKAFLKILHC

O=C1CC2(CCCC2)C(O)C(=O)N1CCCCN1CCN(c2ncccn2)CC1 (racemic) [6-OH-Busp]
exposure (area under the concentration-time profile) of metabolite relative to parent compound ([1]; oral dosing of buspirone in rats): 12 fold
Bioavailability ([1]; rats): 19%
plasma half-life ([1]; rats): 1.2 ± 0.2 h
EC50 ([2]; dorsal raphe (presynaptic), read-out: 5-HT1A receptor occupancy EC50, dorsal raphe): 1000 ± 300 nM
EC50 ([2]; hippocampus (postsynaptic), read-out: 5-HT1A receptor occupancy EC50, hippocampus): 4000 ± 600 nM
Ki [3]: 40.4 ± 17.5 nM
IC50 [4]: 3.1 ± 1.8 µM
Ki [5]: 795 ± 84 nM
effect on adjusting steps of adding 6-OH-Busp to L-DOPA (PD model rats): no significant different effect
